From ChEMBL document CHEMBL3885861, “Open TG-GATES”

Species on record: Rattus norvegicus
Experiment: Open TG-GATES - Regimen: Daily Repeat
Format: toxicity, organism-based, Sprague-Dawley
Set-up: regimen Daily Repeat, gender Male, age 6 weeks
Conditions: in vivo, po, 10 mg/kg, route gavage, dose level Low; for APTT / Bas / Eos / Fbg / Hb / Ht / Lym / MCH / MCHC / MCV / Mono / Neu / PT / Plat / RBC / Ret / WBC: tissue Blood; for KIDNEY_L / KIDNEY_R / KIDNEY_TOTAL: tissue Kidney; for LIVER: tissue Liver; for A/G / ALP / ALT / AST / BUN / CRE / Ca / Cl / DBIL / GLC / IP / K / LDH / Na / PL / RALB / TBIL / TC / TG / TP / gamma-GTP: tissue Plasma

Structure (SMILES): CCCc1cc(=O)[nH]c(=S)[nH]1 [PROPYLTHIOURACIL]
- TERMINAL_BW (72 h, time 3 day): 207 g
- APTT (72 h, time 3 day): 15.4 s
- Bas (72 h, time 3 day): 0%
- Eos (72 h, time 3 day): 0%
- Fbg (72 h, time 3 day): 238.6 mg/dL
- Hb (72 h, time 3 day): 13.5 g/dL
- Ht (72 h, time 3 day): 40.4%
- Lym (72 h, time 3 day): 75.2%
- MCH (72 h, time 3 day): 21.4 pg
- MCHC (72 h, time 3 day): 33.3%
- MCV (72 h, time 3 day): 64.3 fL
- Mono (72 h, time 3 day): 7.4%
- Neu (72 h, time 3 day): 17.4%
- PT (72 h, time 3 day): 12.4 s
- Plat (72 h, time 3 day): 93.7 x10_4/uL
- RBC (72 h, time 3 day): 629.4 x10_4/ul
- Ret (72 h, time 3 day): 6.6%
- WBC (72 h, time 3 day): 124.3 x10_2/uL
- KIDNEY_L (72 h, time 3 day): 0.9 g
- KIDNEY_R (72 h, time 3 day): 0.9 g
- KIDNEY_TOTAL (72 h, time 3 day): 1.8 g
- LIVER (72 h, time 3 day): 10 g
- A/G (72 h, time 3 day): 2
- ALP (72 h, time 3 day): 1039.8 IU/L
- ALT (72 h, time 3 day): 30.4 IU/L
- AST (72 h, time 3 day): 54.4 IU/L
- BUN (72 h, time 3 day): 20 mg/dL
- CRE (72 h, time 3 day): 0.5 mg/dL
- Ca (72 h, time 3 day): 11.2 mg/dL
- Cl (72 h, time 3 day): 105.8 meq/L
- DBIL (72 h, time 3 day): 0 mg/dL
- GLC (72 h, time 3 day): 185.4 mg/dL
- IP (72 h, time 3 day): 7.1 mg/dL
- K (72 h, time 3 day): 4.7 meq/L
- LDH (72 h, time 3 day): 81.2 IU/L
- Na (72 h, time 3 day): 138 meq/L
- PL (72 h, time 3 day): 161.4 mg/dL
- RALB (72 h, time 3 day): 3.9 g/dL
- TBIL (72 h, time 3 day): 0.3 mg/dL
- TC (72 h, time 3 day): 97.6 mg/dL
- TG (72 h, time 3 day): 87.4 mg/dL
- TP (72 h, time 3 day): 5.9 g/dL
- gamma-GTP (72 h, time 3 day): 2 IU/L
- TERMINAL_BW ([…], time 7 day): 233.5 g
- TERMINAL_BW ([…], time 14 day): 245.3 g
- TERMINAL_BW ([…], time 28 day): 243.1 g
- APTT ([…], time 7 day): 15.3 s
- Bas ([…], time 7 day): 0%
- Eos ([…], time 7 day): 0.2%
- Fbg ([…], time 7 day): 252.2 mg/dL
- Hb ([…], time 7 day): 13.9 g/dL
- Ht ([…], time 7 day): 41.5%
- Lym ([…], time 7 day): 86.6%
- MCH ([…], time 7 day): 21 pg
- MCHC ([…], time 7 day): 33.4%
- MCV ([…], time 7 day): 62.8 fL
- Mono ([…], time 7 day): 6.6%
- Neu ([…], time 7 day): 6.6%
- PT ([…], time 7 day): 12.6 s
- Plat ([…], time 7 day): 117.2 x10_4/uL
- RBC ([…], time 7 day): 662.4 x10_4/ul
- Ret ([…], time 7 day): 4%
- WBC ([…], time 7 day): 116 x10_2/uL
- APTT ([…], time 14 day): 16.4 s
- Bas ([…], time 14 day): 0%
- Eos ([…], time 14 day): 0.4%
- Fbg ([…], time 14 day): 194.6 mg/dL
- Hb ([…], time 14 day): 14.7 g/dL
- Ht ([…], time 14 day): 43.7%
- Lym ([…], time 14 day): 90.6%
- MCH ([…], time 14 day): 20.6 pg
- MCHC ([…], time 14 day): 33.7%
- MCV ([…], time 14 day): 61.1 fL
- Mono ([…], time 14 day): 3.8%
- Neu ([…], time 14 day): 5.2%
- PT ([…], time 14 day): 14 s
- Plat ([…], time 14 day): 101.1 x10_4/uL
- RBC ([…], time 14 day): 715.2 x10_4/ul
- Ret ([…], time 14 day): 1.3%
- WBC ([…], time 14 day): 120.9 x10_2/uL
- APTT ([…], time 28 day): 15.2 s
- Bas ([…], time 28 day): 0%
- Eos ([…], time 28 day): 1.6%
- Fbg ([…], time 28 day): 176.8 mg/dL
- Hb ([…], time 28 day): 16.3 g/dL
- Ht ([…], time 28 day): 48.4%
- Lym ([…], time 28 day): 85.4%
- MCH ([…], time 28 day): 19.3 pg
- MCHC ([…], time 28 day): 33.7%
- MCV ([…], time 28 day): 57.5 fL
- Mono ([…], time 28 day): 4.8%
- Neu ([…], time 28 day): 8.2%
- PT ([…], time 28 day): 14.8 s
- Plat ([…], time 28 day): 83 x10_4/uL
- RBC ([…], time 28 day): 843.2 x10_4/ul
- Ret ([…], time 28 day): 0.7%
- WBC ([…], time 28 day): 61.3 x10_2/uL
- KIDNEY_L ([…], time 7 day): 1 g
- KIDNEY_R ([…], time 7 day): 1 g
- KIDNEY_TOTAL ([…], time 7 day): 1.9 g
- KIDNEY_L ([…], time 14 day): 0.9 g
- KIDNEY_R ([…], time 14 day): 0.9 g
- KIDNEY_TOTAL ([…], time 14 day): 1.7 g
- KIDNEY_L ([…], time 28 day): 0.8 g
- KIDNEY_R ([…], time 28 day): 0.8 g
- KIDNEY_TOTAL ([…], time 28 day): 1.7 g
- LIVER ([…], time 7 day): 12.4 g
- LIVER ([…], time 14 day): 10.5 g
- LIVER ([…], time 28 day): 7.9 g
- A/G ([…], time 7 day): 1.8
- ALP ([…], time 7 day): 740.8 IU/L
- ALT ([…], time 7 day): 27.6 IU/L
- AST ([…], time 7 day): 48.8 IU/L
- BUN ([…], time 7 day): 20.4 mg/dL
- CRE ([…], time 7 day): 0.5 mg/dL
- Ca ([…], time 7 day): 11.5 mg/dL
- Cl ([…], time 7 day): 105.6 meq/L
- DBIL ([…], time 7 day): 0.008 mg/dL
- GLC ([…], time 7 day): 169.4 mg/dL
- IP ([…], time 7 day): 7.2 mg/dL
- K ([…], time 7 day): 4.9 meq/L
- LDH ([…], time 7 day): 83.8 IU/L
- Na ([…], time 7 day): 139.6 meq/L
- PL ([…], time 7 day): 174.2 mg/dL
- RALB ([…], time 7 day): 4.1 g/dL
- TBIL ([…], time 7 day): 0.3 mg/dL
- TC ([…], time 7 day): 108 mg/dL
- TG ([…], time 7 day): 116.6 mg/dL
- TP ([…], time 7 day): 6.4 g/dL
- gamma-GTP ([…], time 7 day): 1.4 IU/L
- A/G ([…], time 14 day): 1.7
- ALP ([…], time 14 day): 568 IU/L
- ALT ([…], time 14 day): 27 IU/L
- AST ([…], time 14 day): 52.8 IU/L
- BUN ([…], time 14 day): 26.6 mg/dL
- CRE ([…], time 14 day): 0.7 mg/dL
- Ca ([…], time 14 day): 11.1 mg/dL
- Cl ([…], time 14 day): 106.4 meq/L
- DBIL ([…], time 14 day): 0.006 mg/dL
- GLC ([…], time 14 day): 178.6 mg/dL
- IP ([…], time 14 day): 6.3 mg/dL
- K ([…], time 14 day): 4.3 meq/L
- LDH ([…], time 14 day): 68.4 IU/L
- Na ([…], time 14 day): 141 meq/L
- PL ([…], time 14 day): 152.6 mg/dL
- RALB ([…], time 14 day): 4.2 g/dL
- TBIL ([…], time 14 day): 0.2 mg/dL
- TC ([…], time 14 day): 96.4 mg/dL
- TG ([…], time 14 day): 59.8 mg/dL
- TP ([…], time 14 day): 6.7 g/dL
- gamma-GTP ([…], time 14 day): 2.2 IU/L
- A/G ([…], time 28 day): 2
- ALP ([…], time 28 day): 628 IU/L
- ALT ([…], time 28 day): 35.4 IU/L
- AST ([…], time 28 day): 63.4 IU/L
- BUN ([…], time 28 day): 25.8 mg/dL
- CRE ([…], time 28 day): 0.7 mg/dL
- Ca ([…], time 28 day): 10.5 mg/dL
- Cl ([…], time 28 day): 108.6 meq/L
- DBIL ([…], time 28 day): 0.056 mg/dL
- GLC ([…], time 28 day): 161 mg/dL
- IP ([…], time 28 day): 5.7 mg/dL
- K ([…], time 28 day): 4.2 meq/L
- LDH ([…], time 28 day): 62.6 IU/L
- Na ([…], time 28 day): 141.2 meq/L
- PL ([…], time 28 day): 150.6 mg/dL
- RALB ([…], time 28 day): 4.3 g/dL
- TBIL ([…], time 28 day): 0.2 mg/dL
- TC ([…], time 28 day): 100.8 mg/dL
- TG ([…], time 28 day): 44.6 mg/dL
- TP ([…], time 28 day): 6.5 g/dL
- gamma-GTP ([…], time 28 day): 3.2 IU/L
